Assay results taken from patent US20090124598A1, “PHARMACEUTICAL USE OF SUBSTITUTED AMIDES” (priority 2005, published 2009).

Target: T1, h-11βHSD1 (Homo sapiens, UniProt P28845)
T1 construct: made in house
Assay: 11βHSD1 enzyme assay (SPA)
Format: biochemical
Conditions: extract of yeast transformed with h-11βHSD1; 120 nM 3H-cortisone, 60 min at 30° C., pH=7.4; read-out: Inhibition of 11βHSD1, h-11βHSD1 IC50 values
Experimental: 3H-cortisone and anti-rabbit Ig coated scintillation proximity assay (SPA) beads were purchased from Amersham Pharmacia Biotech, P-NADPH was from Sigma and rabbit anticortisol antibodies were from Fitzgerald. An extract of yeast transformed with h-11βHSD1 (Hult et al., FEBS Lett., 441, 25 (1998)) was used as the source of enzyme. The test compounds were dissolved in DMSO (10 mM). All dilutions were performed in a buffer containing 50 mM TRIS-HCl (Sigma Chemical Co), 4 mM EDTA (Sigma Chemical Co), 0.1% BSA (Sigma Chemical Co), 0.01% Tween-20 (Sigma Chemical Co) and 0.005% bacitracin (Novo Nordisk A/S), pH=7.4. Optiplate 96 wells plates were supplied by Packard. The amount of 3H-cortisol bound to the SPA beads was measured on TopCount NXT, Packard.
h-11βHSD1, 120 nM 3H-cortisone, 4 mM β3-NADPH, antibody (1:200), serial dilutions of test compound and SPA particles (2 mg/well) were added to the wells. The reaction was initiated by mixing the different components and was allowed to proceed under shaking for 60 min at 30° C. The reaction was stopped be the addition of 10 fold excess of a stopping buffer containing 500 μM carbenoxolone and 1 μM cortisone. Data was analysed using GraphPad Prism software.

T1 sequence (P28845 whole entry): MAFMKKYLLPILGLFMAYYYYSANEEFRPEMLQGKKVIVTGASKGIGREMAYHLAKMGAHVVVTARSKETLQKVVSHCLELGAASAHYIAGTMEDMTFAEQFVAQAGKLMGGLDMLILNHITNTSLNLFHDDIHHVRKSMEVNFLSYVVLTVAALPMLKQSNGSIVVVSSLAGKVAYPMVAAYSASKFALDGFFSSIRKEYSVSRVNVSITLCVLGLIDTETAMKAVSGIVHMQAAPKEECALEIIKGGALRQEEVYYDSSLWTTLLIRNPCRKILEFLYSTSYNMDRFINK

Compound | IC50 [nM]
CN(Cc1ccc(C(=O)N2CC3(C)CC2CC(C)(C)C3)cc1)C(=O)c1ccc(S(C)(=O)=O)cc1 (stereo not drawn) [Example 1-28, 4-Methanesulfonyl-N-methyl-N-[4-(1,3,3-trimethyl-6-aza-bicyclo[3.2.1]octane-6-carbonyl)-benzyl]-benzamide] | 19
CC(C)N(Cc1ccc(C(=O)N2CC3(C)CC2CC(C)(C)C3)cc1)S(=O)(=O)C(F)(F)F (stereo not drawn) [Example 2-5, Trifluoro-N-isopropyl-N-[4-(1,3,3-trimethyl-6-aza-bicyclo[3.2.1]octane-6-carbonyl)-benzyl]-methanesulfonamide] | 10
COC(=O)CN(C)C(=O)N(C)Cc1ccc(C(=O)N2CC3(C)CC2CC(C)(C)C3)cc1 (stereo not drawn) [Example 3-8, {1,3-Dimethyl-3-[4-(1,3,3-trimethyl-6-aza-bicyclo[3.2.1]octane-6-carbonyl)-benzyl]-ureido}-acetic Acid Methyl Ester] | 500
